In patent US20100190688A1, “Tetrapeptide analogs” (priority 2004, published 2010) one finds EC50 data, which are given here for 25 molecules.

For one experiment, the target named is BIR3 domain of rat XIAP (Rattus norvegicus, UniProt Q9R0I6). Nature of the experiment: Fluorescence polarization assay, binding to BIR3 from rat XIAP. Background: Polarisation of emitted light reports the rotation of a fluorescent probe.
Experiment [1] addresses T1, BIR3-mediated Caspase-9 inhibition (UniProt Q9R0I6).
T1 construct: Nothing is printed for this assay
Nature of the experiment: Caspase-9 rescue assay (relief of BIR3-mediated Caspase-9 inhibition). It counts as biochemical, human Caspase-9; Rat or Chicken BIR3. To be noted: average EC50, substrate Ac-LEHD-amc, pH 6.5. How it is done:
Additionally the compounds and compositions can be evaluated for their ability to achieve relief of BIR3-mediated Caspase-9 inhibition by measuring Caspase-9 reactivation. The fluorogenic substrate Ac-LEHD-7-amido-4-methylcoumarin is used in these methods. EC50 values of tested BIR3 inhibitors or Caspase-9 rescuers is calculated from the percentage of Caspase-9 reactivation in the mixtures containing serially diluted concentrations of tested compound. Typically, 10-point curves are generated for such EC50 determination.
Relief of BIR3-mediated Caspase-9 inhibition by BIR3 inhibitors was assayed by measuring Caspase-9 reactivation using the fluorogenic substrate Ac-LEHD-7-amido-4-methylcoumarin. A truncated form of human Caspase-9 that lacks the N-terminal Caspase recruitment domain (EPro-Caspase-9 or p35/p12) was used in the assay. This form of the enzyme has the full catalytic activity and the same substrate specificity as the full-length protein in the Apaf-1/Cytochrome C/dATP/Caspase-9 reconstituted system. Rat or Chicken BIR3 was used in this assay. […] This mixture was incubated for 40 min to allow equilibration at 25° C., and the assay progression was subsequently followed by monitoring the formation of fluorescent 7-amido-4-methylcoumarin over time at 460 nm using an excitation wavelength of 360 nm. […] EC50 values of tested BIR3 inhibitors or Caspase-9 rescuers were calculated from the percentage of Caspase-9 reactivation in the mixtures containing serially diluted concentrations of tested compound.

Bounds are passed on as bounds.

Sequence of BIR3 domain of rat XIAP (Q9R0I6 241-355): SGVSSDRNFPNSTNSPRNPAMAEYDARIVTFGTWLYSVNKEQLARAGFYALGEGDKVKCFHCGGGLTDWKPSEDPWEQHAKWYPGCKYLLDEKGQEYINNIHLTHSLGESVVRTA
Procedure for BIR3 domain of rat XIAP: In fluorescence polarization assays a fluorescent probe is used. The binding affinity of compounds to BIR3 is measured by competitive displacement of a fluorescent probe using fluorescence polarization anisotropy. […] In other embodiments, the probe used is 6-(6-Hydroxy-3-oxo-3H-xanthen-9-yl)-N-(5-(2-methylamino-propionylamino)-6-oxo-6-[4-(1,2,3,4-tetrahydro-naphthalen-1-ylcarbamoyl)-thiazolidin-3-yl]-hexyl)-isophthalamic acid.
The binding affinity of compounds provided herein for rat BIR3 was measured by competitive displacement of a fluorescent probe using fluorescence polarization anisotropy. […] Control conditions were set up on each plate and include free probe 1 alone (5 nM), fully bound probe (5 μM BIR3+5 nM probe 1) and binding buffer blank. The-EC50 of binding was computed from a 4-parameter fit of the measured anisotropies using the SoftMax Pro 4.6 software package (Molecular Dynamics, Sunnyvale, Calif.).
Alternatively, probe 1 was substituted with probe 2: 6-(6-Hydroxy-3-oxo-3H-xanthen-9-yl)-N-{5-(2-methylamino-propionylamino)-6-oxo-6-[4-(1,2,3,4-tetrahydro-naphthalen-1-ylcarbamoyl)-thiazolidin-3-yl]-hexyl}-isophthalamic acid, for rat BIR3 and the concentrations of assay components changed. […] Controls were adjusted accordingly.

By EC50 is commonly meant the concentration giving half of the maximal effect. The low end stands for greater potency, the high end for weaker potency. Regarding `CNC(C)C(=O)NC(C(=O)N1CCSCC1C(=O)NC1CCCc2ccccc21)C(C)C` (centres unmarked) [4-[3-Methyl-2-(2-methylamino-propionylamino)-butyryl]-thiomorpholine-3-carboxylic acid (1,2,3,4-tetrahydro-naphthalen-1-yl)-amide], the EC50 was below 1 µM on BIR3 domain of rat XIAP and 1 to 10 µM in experiment [1].
Consider `CNC(C)C(=O)NC(C(=O)NC(C(=O)NC1CCCc2ccccc21)C1CCCCC1)C(C)C` (centres unmarked) [N-[Cyclohexyl-(1,2,3,4-tetrahydro-naphthalen-1-ylcarbamoyl)-methyl]-3-methyl-2-(2-methylamino-propionylamino)-butyramide], for which the EC50 (on BIR3 domain of rat XIAP; in experiment [1]) was below 1 µM in each case.
As for `CNC(C)C(=O)NC(C(=O)N1CC2(CC1C(=O)NC1CCCc3ccccc31)SCCS2)C(C)C` (centres unmarked) [7-[3-Methyl-2-(2-methylamino-propionylamino)-butyryl]-1,4-dithia-7-aza-spiro[4.4]nonane-8-carboxylic acid (1,2,3,4-tetrahydro-naphthalen-1-yl)-amide], the concentration for a half-maximal effect (EC50) at BIR3 domain of rat XIAP is below 1 µM; in experiment [1], 1 to 10 µM.
On the same counts, the results for `CNC(C)C(=O)NC(C(=O)N1CCCC1C(=O)NCCC(c1ccccc1)c1ccccc1)C(C)(C)C` (centres unmarked) [1-[3,3-Dimethyl-2-(2-methylamino-propionylamino)-butyryl]-pyrrolidine-2-carboxylic acid (3,3-diphenyl-propyl)-amide] are 1 to 10 µM and above 10 µM.
On the same counts, the results for `CC(NCC1CC1)C(=O)NC(C(=O)N1CCCC1C(=O)NC1CCCc2ccccc21)C(C)(C)C` (centres unmarked) [1-{2-[2-(Cyclopropylmethyl-amino)-propionylamino]-3,3-dimethyl-butyryl}-pyrrolidine-2-carboxylic acid (1,2,3,4-tetrahydro-naphthalen-1-yl)-amide] are below 1 µM and 1 to 10 µM.
On the same counts, the results for `CNC(C)C(=O)NC(C(=O)N1Cc2ccccc2CC1C(=O)NN(c1ccccc1)c1ccccc1)C(C)C` (centres unmarked) [N-{1-[3-N′,N′-Diphenyl-hydrazinocarbonyl)-3,4-dihydro-1H-isoquinoline-2-carbonyl]-2-methyl-propyl}-2-methylamino-propionamide] are above 10 µM and above 10 µM.
For `CNC(C)C(=O)NC(C(=O)NCC(=O)NC1CCCc2ccccc21)C(C)C` (centres unmarked) [3-Methyl-2-(2-methylamino-propionylamino)-N-[(1,2,3,4-tetrahydro-naphthalen-1-ylcarbamoyl)-methyl]-butyramide], the EC50 (on BIR3 domain of rat XIAP; in experiment [1]) was 1 to 10 µM throughout.
For `CNC(C)C(=O)NC(CCCCNC(=O)OCC1c2ccccc2-c2ccccc21)C(=O)N1CSCC1C(=O)NC1CCCc2ccccc21` (centres unmarked) [{5-(2-Methylamino-propionylamino)-6-oxo-6-[4-(1,2,3,4-tetrahydro-naphthalen-1-ylcarbamoyl)-thiazolidin-3-yl]-hexyl}-carbamic acid 9H-fluoren-9-ylmethyl ester], the concentration giving a half-maximal response (EC50) (on BIR3 domain of rat XIAP; in experiment [1]) was below 1 µM throughout.
Turning to `CNC(C)C(=O)NC(C(=O)NC(C(=O)NC1CCCc2ccccc21)c1ccccc1)C(C)C` (centres unmarked) [3-Methyl-2-(2-methylamino-propionylamino)-N-[phenyl-(1,2,3,4-tetrahydro-naphthalen-1-ylcarbamoyl)-methyl]-butyramide], the EC50 (on BIR3 domain of rat XIAP; in experiment [1]) was below 1 µM each time.
For `CNC(C)C(=O)NC(C(=O)N1CSCC1C(=O)NC1CCCc2ccccc21)C(C)C` (centres unmarked) [3-[3-Methyl-2-(2-methylamino-propionylamino)-butyryl]-thiazolidine-4-carboxylic acid (1,2,3,4-tetrahydro-naphthalen-1-yl)-amide], the EC50 (on BIR3 domain of rat XIAP; in experiment [1]) was below 1 µM throughout.
With `CN[C@@H](C)C(=O)N[C@H](C(=O)N1COC[C@H]1C(=O)N[C@@H]1CCCc2ccccc21)C(C)C` [3-[3-Methyl-2-(2-methylamino-propionylamino)-butyryl]-oxazolidine-4-carboxylic acid (1,2,3,4-tetrahydro-naphthalen-1-yl)-amide], the EC50 (at BIR3 domain of rat XIAP; in experiment [1]) was below 1 µM each time.
On to `CNC(C)C(=O)NC(C(=O)NC(CC(=O)OCc1ccccc1)C(=O)NC1CCCc2ccccc21)C(C)C` (centres unmarked) [3-[3-Methyl-2-(2-methylamino-propionylamino)-butyrylamino]-N-(1,2,3,4-tetrahydro-naphthalen-1-yl)-succinamic acid benzyl ester], for which the EC50 was below 1 µM on BIR3 domain of rat XIAP and 1 to 10 µM in experiment [1].
On the same counts, the results for `CNC(C)C(=O)NC(C(=O)N1CSCC1C(=O)NC1CCc2ccccc21)C(C)C` (centres unmarked) [3-[3-Methyl-2-(2-methylamino-propionylamino)-butyryl]-thiazolidine-4-carboxylic acid indan-1-ylamide] are below 1 µM and below 1 µM.
On the same counts, the results for `CNC(C)C(=O)NC1CCC(=O)N2CCC(C(=O)NC3CCCc4ccccc43)N2C1=O` (centres unmarked) [8-(2-Methylamino-propionylamino)-5,9-dioxo-hexahydro-pyrazolo[1,2-a][1,2]diazepine-1-carboxylic acid (1,2,3,4-tetrahydro-naphthalen-1-yl)-amide] are below 1 µM and 1 to 10 µM.
Regarding `CCCCN(CCCC)CCCCC(NC(=O)C(NC(=O)C(C)NC)C(C)C)C(=O)NC1CCCc2ccccc21` (centres unmarked) [6-Dibutylamino-2-[3-methyl-2-(2-methylamino-propionylamino)-butyrylamino]-hexanoic acid (1,2,3,4-tetrahydro-naphthalen-1-yl)-amide], the EC50 (at BIR3 domain of rat XIAP; in experiment [1]) was below 1 µM throughout.
On to `CNC(C)C(=O)NC(C(=O)NC(CCNC(=O)OCc1ccccc1)C(=O)NC1CCCc2ccccc21)C(C)C` (centres unmarked) [[3-[3-Methyl-2-(2-methylamino-propionylamino)-butyrylamino]-3-(1,2,3,4-tetrahydro-naphthalen-1-ylcarbamoyl)-propyl]-carbamic acid benzyl ester], for which the EC50 on BIR3 domain of rat XIAP was below 1 µM; in experiment [1], 1 to 10 µM.
As to `CNC(C)C(=O)NC(C(=O)N1CSCC1C(=O)NC(Cc1ccccc1)Cc1ccccc1)C(C)C` (centres unmarked) [3-[3-Methyl-2-(2-methylamino-propionylamino)-butyryl]-thiazolidine-4-carboxylic acid (1-benzyl-2-phenyl-ethyl)-amide], the EC50 (at BIR3 domain of rat XIAP; in experiment [1]) was below 1 µM in each case.
`CNC(C)C(=O)NC(C(=O)N1CCCC1C(=O)NN(Cc1ccccc1)Cc1ccccc1)C(C)(C)C` (centres unmarked) [N-{1-[2-(N′,N′-Dibenzyl-hydrazinocarbonyl)-pyrrolidine-1-carbonyl]-2,2-dimethyl-propyl}-2-methylamino-propionamide]: the values for the EC50 (on BIR3 domain of rat XIAP; in experiment [1]) were below 1 µM and 1 to 10 µM, respectively.
On the same counts, the results for `CCCCC(NC(=O)C(NC(=O)C(C)NC)C(C)C)C(=O)NC1CCCc2ccccc21` (centres unmarked) [2-[3-Methyl-2-(2-methylamino-propionylamino)-butyrylamino]-hexanoic acid (1,2,3,4-tetrahydro-naphthalen-1-yl)-amide] are below 1 µM and 1 to 10 µM.
On the same counts, the results for `CNC(C)C(=O)NC(C(=O)NC(Cc1ccccc1)C(=O)NC1CCCc2ccccc21)C(C)C` (centres unmarked) [3-Methyl-2-(2-methylamino-propionylamino)-N-[2-phenyl-1-(1,2,3,4-tetrahydro-naphthalen-1-ylcarbamoyl)-ethyl]-butyramide] are 1 to 10 µM and above 10 µM.
In the case of `CN[C@@H](C)C(=O)N[C@H](C(=O)N[C@@H](CCCCNS(=O)(=O)c1ccc(C)cc1)C(=O)NC1CCCc2ccccc21)C(C)C` (stereo in doubt) [2-[3-Methyl-2-(2-methylamino-propionylamino)-butyrylamino]-6-(toluene-4-sulfonylamino)-hexanoic acid (1,2,3,4-tetrahydro-naphthalen-1-yl)-amide], the EC50 (on BIR3 domain of rat XIAP; in experiment [1]) was below 1 µM throughout.
For `CNC(C)C(=O)NC(C(=O)N1CSCC1C(=O)NN(Cc1ccccc1)Cc1ccccc1)C(C)C` (centres unmarked) [N-{1-[4-(N′,N′-Dibenzyl-hydrazinocarbonyl)-thiazolidine-3-carbonyl]-2-methyl-propyl}-2-methylamino-propionamide], the EC50 (at BIR3 domain of rat XIAP; in experiment [1]) was below 1 µM each time.
Turning to `CNC(C)C(=O)NC(C(=O)N1CCSC1C(=O)NC1CCCc2ccccc21)C(C)C` (centres unmarked) [3-[3-Methyl-2-(2-methylamino-propionylamino)-butyryl]-thiazolidine-2-carboxylic acid (1,2,3,4-tetrahydro-naphthalen-1-yl)-amide], the EC50 (at BIR3 domain of rat XIAP; in experiment [1]) was below 1 µM each time.
For `CNC(C)C(=O)NC(C(=O)N(C)C(CCCCNC(=O)OCc1ccccc1)C(=O)NC1CCCc2ccccc21)C(C)C` (centres unmarked) [[5-{Methyl-[3-methyl-2-(2-methylamino-propionylamino)-butyryl]-amino}-5-(1,2,3,4-tetrahydro-naphthalen-1-ylcarbamoyl)-pentyl]-carbamic acid benzyl ester], the EC50 at BIR3 domain of rat XIAP is below 1 µM; in experiment [1], 1 to 10 µM.
On the same counts, the results for `CNC(C)C(=O)NC(C(=O)N1Cc2ccccc2CC1C(=O)NC1CCCc2ccccc21)C(C)C` (centres unmarked) [2-[3-Methyl-2-(2-methylamino-propionylamino)-butyryl]-1,2,3,4-tetrahydro-isoquinoline-3-carboxylic acid (1,2,3,4-tetrahydro-naphthalen-1-yl)-amide] are below 1 µM and below 1 µM.
